Results from PubChem BioAssay (NCI).
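GI50 is the concentration that inhibits growth by half. TGI is the concentration that stops growth completely.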

Tests used:
Test in all cases: inhibition of tumour cell growth, NCI panel, 384-well format
OVCAR-5 ovarian = system: OVCAR-5 ovarian
HCT-116 colon = system: HCT-116 colon
NCI-H460 NSCLC = system: NCI-H460 NSCLC
SW-620 colon = system: SW-620 colon
MALME-3M melanoma = system: MALME-3M melanoma
CAKI-1 renal = system: CAKI-1 renal
SK-MEL-2 melanoma = system: SK-MEL-2 melanoma
PC-3 prostate = system: PC-3 prostate
SK-MEL-5 melanoma = system: SK-MEL-5 melanoma
786-0 renal = system: 786-0 renal
HCT-15 colon = system: HCT-15 colon
BT-549 breast = system: BT-549 breast
IGROV1 ovarian = system: IGROV1 ovarian
SN12C renal = system: SN12C renal
NCI-H23 lung = system: NCI-H23 lung
SK-MEL-28 melanoma = system: SK-MEL-28 melanoma
HOP-62 NSCLC = system: HOP-62 NSCLC
TK-10 renal = system: TK-10 renal
NCI-H226 lung = system: NCI-H226 lung
U251 glioblastoma = system: U251 glioblastoma
HT29 colon = system: HT29 colon
T-47D breast = system: T-47D breast
MDA-MB-435 melanoma = system: MDA-MB-435 melanoma
DU-145 prostate = system: DU-145 prostate
A498 renal = system: A498 renal
NCI-H522 lung = system: NCI-H522 lung
MDA-MB-231 breast = system: MDA-MB-231 breast
UACC-257 melanoma = system: UACC-257 melanoma
HCC-2998 colon = system: HCC-2998 colon
UO-31 renal = system: UO-31 renal

SMILES: COc1cc(-c2ncn(/C=C\C(=O)OC(C)C)n2)cc(C(F)(F)F)c1
- GI50 (OVCAR-5 ovarian): 117 nM
- TGI (OVCAR-5 ovarian): 10000 nM
- GI50 (HCT-116 colon): 85 nM
- TGI (HCT-116 colon): 311 nM
- GI50 (NCI-H460 NSCLC): 29.6 nM
- TGI (NCI-H460 NSCLC): 163 nM
- GI50 (SW-620 colon): 56.1 nM
- TGI (SW-620 colon): 1250 nM
- GI50 (MALME-3M melanoma): 171 nM
- TGI (MALME-3M melanoma): 609 nM
- GI50 (CAKI-1 renal): 34.7 nM
- TGI (CAKI-1 renal): 3950 nM
- GI50 (SK-MEL-2 melanoma): 44.3 nM
- TGI (SK-MEL-2 melanoma): 69.5 nM
- GI50 (PC-3 prostate): 37.4 nM
- TGI (PC-3 prostate): 232 nM
- GI50 (SK-MEL-5 melanoma): 137 nM
- TGI (SK-MEL-5 melanoma): 601 nM
- GI50 (786-0 renal): 37.3 nM
- TGI (786-0 renal): 1200 nM
- GI50 (HCT-15 colon): 45.8 nM
- TGI (HCT-15 colon): 1040 nM
- GI50 (BT-549 breast): 19 nM
- TGI (BT-549 breast): 46.5 nM
- GI50 (IGROV1 ovarian): 92.8 nM
- TGI (IGROV1 ovarian): 2090 nM
- GI50 (SN12C renal): 283 nM
- TGI (SN12C renal): 1770 nM
- GI50 (NCI-H23 lung): 56.4 nM
- TGI (NCI-H23 lung): 1140 nM
- GI50 (SK-MEL-28 melanoma): 222 nM
- TGI (SK-MEL-28 melanoma): 1610 nM
- GI50 (HOP-62 NSCLC): 291 nM
- TGI (HOP-62 NSCLC): 1530 nM
- GI50 (TK-10 renal): 37.9 nM
- TGI (TK-10 renal): 1200 nM
- GI50 (NCI-H226 lung): 20.8 nM
- TGI (NCI-H226 lung): 483 nM
- GI50 (U251 glioblastoma): 39.2 nM
- TGI (U251 glioblastoma): 275 nM
- GI50 (HT29 colon): 74.3 nM
- TGI (HT29 colon): 1120 nM
- GI50 (T-47D breast): 229 nM
- TGI (T-47D breast): 3730 nM
- GI50 (MDA-MB-435 melanoma): 43.3 nM
- TGI (MDA-MB-435 melanoma): 210 nM
- GI50 (DU-145 prostate): 162 nM
- TGI (DU-145 prostate): 866 nM
- GI50 (A498 renal): 114 nM
- TGI (A498 renal): 1250 nM
- TGI (NCI-H522 lung): 92.6 nM
- GI50 (MDA-MB-231 breast): 51.4 nM
- TGI (MDA-MB-231 breast): 663 nM
- GI50 (UACC-257 melanoma): 552 nM
- TGI (UACC-257 melanoma): 4600 nM
- GI50 (HCC-2998 colon): 89.2 nM
- TGI (HCC-2998 colon): 838 nM
- GI50 (UO-31 renal): 166 nM
